Experimental data published in article PMC4718634, “Murine GPRC6A Mediates Cellular Responses to L-Amino Acids, but Not Osteocalcin Variants” (PLoS ONE, 2016).

How the values were obtained:
[1] = test system: MIN6 or βTC6 cells; test: Insulin release, MIN6 or βTC6 cells (summary table); assay type: cell-based, murine; conditions: S1 Table
Protocol: MIN6 or βTC-6 cells were seeded in 24-well plates at 170,000 cells per well in DMEM (containing 4.5g/L glucose, 10 mM HEPES, 100 U/ml penicillin, 100 μg/ml streptomycin and 15% de-complemented FBS) and incubated at 37°C / 5% CO2 for 72 h. Cells were then washed with 500 μl PBS and incubated in 500 μl deprivation media (DMEM with zero glucose, 10 mM HEPES, 1 mM Na-pyruvate, 100 U/ml penicillin, 100 μg/ml streptomycin, 15% de-complemented FBS) for 2 h at 37°C. Media was aspirated and after washing with 500 μl PBS, cells were treated with 250 μl of Krebs buffer (250 mM NaCl, 5.9 mM KCl, 1.2 mM MgCl2, 1.3 mM CaCl2, 25 mM HEPES, 0.1% BSA (w/v), and 2 mM or 16.7 mM glucose; pH 7.4) in the presence or absence of test compound. After incubation for 2 h at 37°C, the assay was terminated by placing the plates on ice and supernatants were transferred to a 96-well plate in preparation for insulin ELISA (Alpco) following manufacturer’s instructions. The cell monolayer was washed twice with 500 μl of PBS and then lysed using 250 μl of 1 N NaOH prior to protein measurement by the method of Bradford (1976).

[2] = test system: GPRC6A; conditions: GPRC6A-expressing cell lines or mouse pancreatic islets; ref [29]; cited from earlier work
Source text: (§1) The involvement of GPRC6A has been shown by transfection of receptor-specific siRNA, receptor blockade with a polyclonal antibody and, in the case of the islets, using tissue from KO mice.

[3] = test system: GPRC6A-expressing cell lines or mouse pancreatic islets; conditions: ref [31]; cited from earlier work
Source text: as §1

[4] = molecular target: T1, mGPRC6A (mouse GPRC6A) (Mus musculus, UniProt Q8K4Z6); test: Cyclic AMP accumulation, HEK293-pIRES-puro6-mGPRC6A cells; assay type: cell-based; conditions: pIRES-puro6 higher-expressing line, S2 Fig
T1 sequence (Q8K4Z6 21-928): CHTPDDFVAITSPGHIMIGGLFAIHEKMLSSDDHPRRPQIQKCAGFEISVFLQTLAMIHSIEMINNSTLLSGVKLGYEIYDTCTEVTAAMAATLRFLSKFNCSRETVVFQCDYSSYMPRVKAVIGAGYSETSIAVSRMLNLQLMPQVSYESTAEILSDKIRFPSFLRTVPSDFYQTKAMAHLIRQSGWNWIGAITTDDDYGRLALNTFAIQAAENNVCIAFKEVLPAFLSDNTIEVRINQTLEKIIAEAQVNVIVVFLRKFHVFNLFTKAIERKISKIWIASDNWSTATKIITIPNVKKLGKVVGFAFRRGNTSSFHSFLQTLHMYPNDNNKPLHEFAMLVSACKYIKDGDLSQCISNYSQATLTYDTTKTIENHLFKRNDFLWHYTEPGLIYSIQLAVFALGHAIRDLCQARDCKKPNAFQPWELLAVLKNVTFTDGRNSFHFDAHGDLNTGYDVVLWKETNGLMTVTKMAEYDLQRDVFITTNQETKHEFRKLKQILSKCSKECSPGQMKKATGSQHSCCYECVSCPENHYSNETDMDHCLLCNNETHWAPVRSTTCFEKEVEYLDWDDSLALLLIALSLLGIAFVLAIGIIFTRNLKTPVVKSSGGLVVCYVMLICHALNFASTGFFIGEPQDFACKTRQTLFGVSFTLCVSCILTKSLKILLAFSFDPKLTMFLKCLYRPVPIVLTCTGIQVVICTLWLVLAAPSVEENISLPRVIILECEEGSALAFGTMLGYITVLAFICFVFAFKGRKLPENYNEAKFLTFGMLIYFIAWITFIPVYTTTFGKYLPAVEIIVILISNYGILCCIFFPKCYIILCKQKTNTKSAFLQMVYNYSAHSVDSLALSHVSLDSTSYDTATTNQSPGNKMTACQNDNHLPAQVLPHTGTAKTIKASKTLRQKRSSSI
Protocol: pcDNA 5/FRT/TO constructs were isogenically integrated into a FlpIn-TREx-HEK293 cell line (Life Technologies). FlpIn-TREx-HEK293-mGPRC6A and FlpIn-TREx-HEK293-hGPRC6A cells were then selected using 600 μg/ml hygromycin and 5 μg/ml blasticidin and grown in culture medium consisting of Dulbecco’s Modified Eagle Medium (DMEM), supplemented with 10% (v/v) foetal bovine serum (FBS) at 37°C in 5% CO2 and were sub-cultured in a 1:3 ratio every 3–4 days. Cells were cultured overnight in the presence of 1 μg/ml tetracycline to induce GPRC6A expression. […] 48 h after transfection, cells were selected using 3 μg/ml puromycin and grown as above.
HEK293-mGPRC6A cells were seeded at a density of 10^5 cells per well into PDL-coated 96-well plates and incubated overnight in DMEM, supplemented with 10% FBS (v/v) at 37°C in 5% CO2. Cells were then incubated in 90 μl of stimulation buffer (HBSS containing 5 mM HEPES, 0.1% BSA (w/v), 0.5 mM IBMX; pH 7.4) for 30 min at 37°C. Test compounds (10 μl at 10 x final) were added and cells were incubated for an additional 30 min at 37°C. The medium was removed and cells were incubated in 50 μl of ice-cold 100% ethanol. […] Samples were analysed using the Alphascreen® cAMP assay kit (Perkin Elmer) following manufacturer instructions. […] After overnight (16 h) incubation at RT, plates were read using the Envision plate reader.

[5] = test system: GPRC6A; set-up: method as in PMID 15576628; conditions: chimera with goldfish 5.24 receptor and full length GPRC6A; ref [1]; cited from earlier work

Compound | Insulin release (summary) [1] | intracellular calcium mobilisation [2] | β-cell proliferation [3] | inhibition of forskolin-stimulated cAMP ([4]; forskolin 3 μM) | stimulation of cAMP accumulation [4] | agonist response of GPRC6A [5]
OCN: osteoblast-derived peptide, osteocalcin; variant not specified at the place (YLYQWLGAPVPYPDPLEPRREVCELNPDCDELADHIGFQEAYRRFYGPV; UniProt P02818 52-100, looked up) | Insulin release – response to L-aa. No response to OCN | cause intracellular calcium mobilisation | increased β-cell proliferation |  |  | 
NCCC[C@H](N)C(=O)O [L-ornithine] |  |  |  | none of the ligands inhibit | Neither L-ornithine nor OCN variants stimulate cAMP accumulation | mediates responses to L-amino acids
